The results in this text go back to patent publication US8586533B2, “Treatment of early-stage osteoarthritis” (Kaohsiung Medical University, priority 2008, dated 2013).

For assay [1], the system named is human articular chondrocytes. The experiment in a line: Dimethylmethylene blue (DMMB) assay of GAG levels in chondrocyte cultures. The format is cell-based. As to conditions: for GAG levels versus control group: 10 nM. How it is done: (§1) Chondrocyte cultures were divided into 4 groups.
Alginate beads were dissolved as described above and further digested by papain (300 μg/ml) at 60° C. for 18 hours. The levels of DNA and sulfated glycosaminoglycan (GAG) in the samples were quantified using Hoechst 33258 dye and 1,9-dimethylmethylene blue dye, respectively. A standard curve for the DMMB assay was generated using aqueous chondroitin sulfate C solution (Sigma-Aldrich, St. Louis, Mo.) at concentrations ranging from […].

A further assay relates to rat articular cartilage. The experiment in a line: Papain-induced OA rat model, TUNEL staining of tibia articular sections. It is filed as in vivo, Sprague-Dawley rats. As to conditions: OA plus PTH group, 10 nM intraarticular. How it is done: Fifty-four 12-week-old male Sprague-Dawley rats (250-300 gm) were purchased from BioLASCO Taiwan and housed under standard laboratory conditions (temperature 24° C., 12-hour light-dark cycle) with food and water ad libitum. The animals were acclimatized to the laboratory environment for 1 week before the experiments.
Rats were divided into the following 3 groups: OA (OA induction without PTH [1-34] treatment) (n=18), OA plus PTH (PTH [1-34] treatment followed by OA induction) (n=18), and PTH (PTH [1-34] treatment without OA induction) (n=18). Each left knee, which served as the contralateral control joint, was injected with vehicle without PTH treatment or OA induction. The right knees were the study joints. OA was induced in the right knees of rats in the OA and OA plus PTH groups with intraarticular injections of 20 μl of 4% papain solution and 20 μl of 0.03M cysteine. The injections were given with a 26-gauge needle via the patellar tendon on days 1, 4, and 7 of the experiment (see e.g., Nucl Med Commun (1996) 17(6): 529-35). […]
Apoptotic cells in each section were measured by TUNEL staining using the In Situ Cell Death Detection Kit, TMR red. […] DAPI-stained cells (mean±SEM 150±40) were counted in the center area of the cartilage in tibia plateaus. […]

In assay [2] the test system is human articular chondrocytes. Briefly: TUNEL staining, rate of apoptosis in chondrocyte cultures. It is filed as cell-based. The following applies: azaC plus PTH cultures, 10 nM, 14 days of treatment, P<0.01. How it is done:
as §1
We measured apoptotic cells using the TUNEL (terminal deoxy-nucleotidyl transferase mediated dUTP nick end labeling) staining method using the In Situ Cell Death Detection Kit, TMR red (Roche, Mannheim, Germany). Following the manufacturer's guidelines, cells were fixed with 4% paraformaldehyde in phosphate buffered saline (PBS) at a cell density of 1×10^6/ml and incubated at room temperature for 10 minutes, and then settled on a slide by centrifugation at a speed of 2,000 rpm for 5 minutes using a cytospin (Cytospin 3; Shandon, Cheshire, UK). Slides were rinsed twice with PBS, and the cells were permeabilized by incubating in permeabilization solution (0.1% Triton X-100 in 0.1% sodium citrate) for 2 minutes on ice. The TUNEL reaction mixture containing terminal deoxynucleotidyl transferase and rhodamine (the labeling dye) was added to the slides and incubated at 37° C. in a humidified chamber in the dark for 60 minutes. The reaction was stopped by a blocking buffer (0.1% Triton X-100/0.5% bovine serum albumin in PBS). Cells were counterstained by 4′,6-diamidino-2-phenylindole (DAPI). The slides were observed under a fluorescence microscope with an excitation wavelength of 580 nm for rhodamine and 365 nm for DAPI. Cell nuclei were stained blue by DAPI, and only apoptotic cells were stained red by rhodamine. Stained cells were counted in 5 microscopic fields (1.566 mm^2/field) on each slide. Data were analyzed using Image-Pro Plus analysis software (Media Cybernetics, Silver Spring, Md.). The rate of apoptosis in chondrocytes was defined as the ratio of red-stained cells (apoptotic cells) to blue-stained cells (total cells).
By using TUNEL staining, the rate of apoptosis in human articular chondrocyte cultures in the control, azaC, and azaC plus PTH groups were compared after 14 days of PTH(1-34) treatment (for the azaC plus PTH group).

The test system of assay [3] is human articular chondrocytes. Briefly: Quantitative real-time PCR of mRNA levels in azaC-induced terminal differentiation culture model. The format is cell-based. The protocol: Chondrocyte cultures were divided into 4 groups. […] Louis, Mo.) for 48 hours.

As to “PTH (1-34): 34-amino acid long peptide made up of amino-terminal amino acids 1 through 34 of human parathyroid hormone”, the “GAG levels versus control group” value is reported as “not significantly different” in assay [1] (PTH group (no azaC)); “higher” in assay [1] (azaC plus PTH group, after 7 and 10 days, P<0.01). The “GAG levels versus azaC group” value in assay [1] (azaC plus PTH group, 10 nM, 3, 7, and 10 days, P<0.01) was “significantly higher”. In addition, in the assay on rat articular cartilage, the “rate of apoptosis of chondrocytes in study cartilage versus contralateral control cartilage” value is “no significant difference”. Also, in the assay with rat articular cartilage (P<0.01), the “rate of apoptosis of chondrocytes in study cartilage versus OA group” value is recorded as “significantly lower”. Besides, in assay [2], the “rate of apoptosis versus azaC cultures” value is given as “significantly lower”. The “rate of apoptosis versus control cultures” value in assay [2] came to 3.1 fold increase. Also, the “Col2a1 expression among azaC plus PTH, azaC and control groups” value in assay [3] (10 nM, 10 days of treatment) is “no significant difference”. The “Expression of aggrecan, Col2a1, Col10a1, ALP, and IHH genes versus control group” value in assay [3] (PTH group (no azaC), 10 nM, 3-10 days of treatment) was “not significantly different”. The Bcl-2 expression was 1.7 times that in control in assay [3] (PTH group (no azaC), 10 nM, 3-10 days of treatment, not statistically significant); 2.1 times that of control in assay [3] (azaC plus PTH group, 10 nM, after 3 days of treatment, P<0.05); 2.1 times control in assay [3] (azaC plus PTH group, 10 nM, after 7 days of treatment, P<0.05); 6.0 times control in assay [3] (azaC plus PTH group, 10 nM, after 10 days of treatment, P<0.01). Also, the “azaC-induced changes in levels of mRNA for Col10a1, ALP, and IHH” value in assay [3] (azaC plus PTH cultures, 10 nM, 3, 7 and 10 days of treatment) is reported as “significantly eliminated”. The “Expression of Col10a1 and ALP versus control cultures” value in assay [3] (azaC plus PTH cultures, 10 nM, day 3 of treatment, P<0.01) was “lower”. Moreover, the “Expression of ALP versus control cultures” value in assay [3] (azaC plus PTH cultures, 10 nM, day 10 of treatment, P<0.05) is reported as “higher”. Further, in assay [3] (azaC plus PTH group, 10 nM, 3-10 days of treatment), the “IHH mRNA level, lower than control cultures” value is on record as 47-71%. Besides, the “aggrecan mRNA level versus azaC group” value in assay [3] (azaC plus PTH group, 10 nM, 3 and 7 days of treatment (P<0.05, P<0.01)) is given as “significantly higher”; in assay [3] (azaC plus PTH group, 10 nM, 10 days of treatment) it was “not different”. Besides, the “Col2a1 expression versus azaC group” value in assay [3] (azaC plus PTH group, 10 nM, 3 days of treatment, P<0.05) is “significantly higher”. Further, in assay [3] (azaC plus PTH group, 10 nM, 7 days of treatment), the “Col2a1 expression versus azaC (P<0.01) or control (P<0.05) group” value is recorded as “higher”. Also, in assay [3] (azaC plus PTH group, 10 nM, 14 days), the Bax expression is recorded as 1.6 times that in the control cultures. Also, the “ratio of Bcl-2 to Bax versus control group” value in assay [3] (azaC plus PTH group, 10 nM, after 3 days (P<0.05) and 10 days (P<0.01)) is “higher”.
